# According to patent US10501493B2, “Broad spectrum antibiotics” (priority 2011, dated 2019):
# Like-named read-outs stand apart in the source and are kept apart here.
# Tests used:
# E. coli ATCC 25922 = assay: In vitro antimicrobial activity, MIC by broth micro-dilution; format: cell-based; conditions: for MIC: Escherichia coli, ATCC25922, read-out: MIC class, E. coli ATCC 25922
# Procedure: (§1) In vitro antimicrobial activity of each compound was determined by measuring minimal inhibitor concentrations (MICs) using the broth micro-dilution technique as approved by the Clinical and Laboratory Standards Institute (CLSI). The microbiological panel examined contains a number of bacterial species including E. coli MG1655, P. aeruginosa, S. aureus, and S. epidermidis. In addition, the panel includes previously described pseudo-isogenic strains of these four species (P. A. Smith et al. Chem Biol 2010, 1223-1231), in which a specific proline residue in SPase (called LepB in Gram-negative organisms an SpsB in Gram-positive organisms) has been mutated to a different amino acid. The resulting strains have increased susceptibility to the arylomycin class of antibiotics. Analysis of the strains lacking this proline residue will increases the dynamic range of the assay, and comparison of the sensitivities of the isogenic pairs provides ongoing confirmation that the activity gained through derivatization is specific to the inhibition of SPase. Briefly, bacterial streaks were grown on Mueller Hinton Agar II (Difco™) with or without 5% lysed horse blood for a period of 24 hours at either 35° C. or 28° C. Bacterial colonies were suspended in cation adjusted Mueller Hinton broth and diluted to a final concentration of 1*10^7 colony forming units/ml. Two-fold serial dilutions of each compound were arrayed into 96-well plates (100 μl final volume per well) and 5 ul of the bacterial suspension will be added. […] MICs were periodically checked plating serial dilutions of MIC wells and quantitatively determining viable colonies.
# [1] = system: S. aureus NCTC-8325 SpsB(P295); assay: as above; format: cell-based; conditions: for MIC: Staphylococcus aureus, NCTC8325, read-out: MIC class, S. aureus NCTC-8325 SpsB(P295)
# Procedure: as §1
# S. epidermidis RP62A = assay: as above; format: cell-based; conditions: for MIC: Staphylococcus epidermidis, RP62A, read-out: MIC class, S. epidermidis RP62A
# Procedure: as §1
# S. pneumoniae D39 = assay: as above; format: cell-based; conditions: for MIC: Streptococcus pneumoniae, D39, read-out: MIC class, S. pneumoniae D39
# Procedure: as §1
# [2] = system: E. col ATCC 25922 LepB(P84L); assay: as above; format: cell-based, E. coli; conditions: for MIC: Escherichia coli, ATCC25922, read-out: MIC class, E. col ATCC 25922 LepB(P84L)
# Procedure: as §1
# S. aurues NCTC-8325 = assay: as above; format: cell-based, S. aureus; conditions: for MIC: Staphylococcus aureus, NCTC8325, read-out: MIC class, S. aurues NCTC-8325
# Procedure: as §1
# E. coli SPase = biological target: T1, E. coli SPase (Escherichia coli, UniProt P00803); assay: Enzymatic fluorogenic substrate cleavage assay for IC50; format: biochemical
# T1 construct: Full length His-tagged E. coli SPase proteins were expressed in E. coli BL21(DE3); His-tag; made in house; host or cells: E. coli BL21(DE3)
# Procedure: (§2) Full length His-tagged E. coli SPase proteins were expressed in E. coli BL21(DE3) containing the plasmid pET23-lepB, P. A. Smith et al. Chem Biol 2010, 1223-1231. Briefly, saturated overnight cultures grown in 20 ml of Luria-Bertani medium supplemented with ampicillin were subcultures into 1.5 L of Luria-Bertani, and shaken at 37° C. until an optical density at 600 nm of 0.4-0.5 was achieved. Protein expression was induced with Isopropyl β-D-1-thiogalactopyranoside (ITPG) at a final concentration of […], and purified using nickel affinity chromatography. Full length His-tagged S. aureus SPase protein was expressed similarly from E. coli BL21(DE3) containing the plasmid pCDF1-SaSpsB or pCDF1-SaSpsB(P29S) and purified similarly to the E. coli protein with the following exceptions. SPase protein was solubilized using 300 mM NaCl, 20 mM Tris pH 8.06, 5 mM Imidazole, 10% glycerol, 1% Triton X-100, prior to purification in Ni-NTA Superflow resin and resin bound protein was washed in a similar buffer containing 1% Elugent in place of Triton X-100 prior to protein eluted in wash buffer supplemented with 300 mM imidazole. Protein purify was judged to exceed 95% by visual inspection of SDS-PAGE followed by Comassie staining. All protein concentrations were determined by BCA assay.
# (§3) In addition to the equilibrium binding assays, compound activity is also characterized by measuring inhibition of E. coli and S. aureus substrate cleavage reactions using fluorogenic peptides developed at RQx Pharmaceuticals. Briefly, two fluorogenic peptide substrates (decanoyl-LSSPA Y^NO2 A ? ADK^abzPD (SEQ ID NO: 1) and decanyol-LTPTAY^NO2 A ? ASKK^abzDD (SEQ ID NO: 2)) have been synthesized, where abz is the fluorescence donor 2-aminobenzamide, YNO2 is the fluorescence acceptor 3-nitrotyrosine, and the cleavage site is indicated with an arrow. These substrates are processed with a second order rate constant (Kcat/KM) of 10^5 M^−1s^−1 for E. coli and S. aureus SPase enzymes, and cleavage results in a greater than 10-fold increase in fluorescence signal (excitation at 314 nm, emission at 416 nm) as measured using a SpectraMax M2 fluorescence microplate reader. Two-folder serial dilutions of compound are prepared in cleavage reaction buffer consisting of: 50 mM Tris-HCl pH 8.0, 100 mM NaCl, 10% glycerol, 1 mM EDTA, detergent (1% NP-40 or 0.1% Elugent™ for E. coli LepB or S. aureus SpsB respectively) and either 2.5 nM of E. coli SPase enzyme or 10 nM of S. aureus SPase enzyme. 40 μl aliquots of the compound dilution series in the protein/buffer solution is transferred to black 384-well polypropylene plates, and 10 μl of fluorogenic peptide at a concentration of 100 μM is added to initiate the reaction. The increase in fluorescence, corresponding to substrate cleavage, is monitored continuously at room temperature for 30 minutes and initial reaction rates are calculated based in the linear increase in fluorescence from the initial 30 minutes of the reaction. Reaction rates are plotted as a function of compound concentration, and IC50 values are determined nonlinear regression analysis (SoftMax® Pro v5.4) of the sigmoidal dose-response curve.
# S. aureus SPase = biological target: T2, S. aureus SPase (Staphylococcus aureus, UniProt P0A070); assay: as above; format: biochemical
# T2 construct: Full length His-tagged S. aureus SPase protein was expressed similarly; His-tag; made in house; host or cells: E. coli BL21(DE3)
# Procedure: as §2, §3
# [3] = fluorogenic peptide cleavage, read-out: IC50 class E. coli SPase
# [4] = fluorogenic peptide cleavage, read-out: IC50 class S. aureus SPase
Compound,"MIC class, E. coli ATCC 25922 (E. coli ATCC 25922)","MIC class, S. aureus NCTC-8325 SpsB(P295) [1]","MIC class, S. epidermidis RP62A (S. epidermidis RP62A)","MIC class, S. pneumoniae D39 (S. pneumoniae D39)","MIC class, E. col ATCC 25922 LepB(P84L) [2]","MIC class, S. aurues NCTC-8325 (S. aurues NCTC-8325)",IC50 (E. coli SPase; [3]) [nM],IC50 (S. aureus SPase; [4]) [nM],MIC (E. coli ATCC 25922) [µg/mL],MIC [1] [µg/mL],MIC (S. epidermidis RP62A) [µg/mL],MIC (S. pneumoniae D39) [µg/mL],MIC [2] [µg/mL],MIC (S. aurues NCTC-8325) [µg/mL],IC50 (E. coli SPase) [nM],IC50 (S. aureus SPase) [nM]
CCCCCCCCCCCCCCCC(=O)N(C)[C@H](CO)C(=O)N[C@H](C)C(=O)NCC(=O)N(C)[C@@H]1C(=O)N[C@@H](C)C(=O)N[C@H](C(=O)NCC(O)C(=O)NC)Cc2ccc(O)c(c2)-c2cc1ccc2O (some centres unmarked) [Compound 90],a (MIC >64 μg/ml),a (MIC >64 μg/ml),c (MIC ≤8 μg/ml),c (MIC ≤8 μg/ml),a (MIC >64 μg/ml),a (MIC >64 μg/ml),1000 to 10000,1000 to 10000,–,–,–,–,–,–,–,–
CCCCCCCCCCCCCCCC(=O)N(C)C(CO)C(=O)N[C@H](C)C(=O)NCC(=O)N(C)[C@@H]1C(=O)N[C@@H](C)C(=O)NC(C(=O)NCC(=O)C(=O)N(C)C)Cc2ccc(O)c(c2)-c2cc1ccc2O (some centres unmarked) [Compound 59],–,–,–,–,–,–,–,–,> 64,> 64,< 8,16 to 64,16 to 64,> 64,< 1000,1000 to 10000
CCCCCCCCCCCCCCCC(=O)N(C)[C@H](CO)C(=O)N[C@H](C)C(=O)N(C)CC(=O)N(C)[C@@H]1C(=O)N[C@@H](C)C(=O)N[C@H](C(=O)O)Cc2ccc(O)c(c2)-c2cc1ccc2O [Compound 84],–,–,–,–,–,–,–,–,> 64,> 64,16 to 64,< 8,> 64,> 64,< 1000,< 1000
CCCCCCCCCCCCCCCC(=O)N(C)[C@H](CO)C(=O)N[C@H](C)C(=O)NCC(=O)N(C)[C@@H]1C(=O)N[C@@H](C)C(=O)N[C@H](C(=O)N[C@@H](CO)C(C)C)Cc2ccc(O)c(c2)-c2cc1ccc2O [Compound 66],–,–,–,–,–,–,–,–,> 64,> 64,16 to 64,16 to 64,16 to 64,> 64,1000 to 10000,> 10000
CCCCCCCCCCCCCCCC(=O)N(C)[C@H](CO)C(=O)N[C@H](C)C(=O)NCC(=O)N(C)[C@@H]1C(=O)N[C@@H](C)C(=O)N[C@H](C(=O)N[C@H](CO)Cc2cnc[nH]2)Cc2ccc(O)c(c2)-c2cc1ccc2O [Compound 71],–,–,–,–,–,–,–,–,> 64,> 64,> 64,16 to 64,> 64,> 64,> 10000,> 10000
CCCCCCCCCCCCCCNC(=O)N(C)[C@H](CO)C(=O)N[C@H](C)C(=O)NCC(=O)N(C)[C@@H]1C(=O)N[C@@H](C)C(=O)N[C@H](C(=O)O)Cc2ccc(O)c(c2)-c2cc1ccc2O [Compound 72],–,–,–,–,–,–,–,–,> 64,16 to 64,< 8,16 to 64,< 8,> 64,< 1000,< 1000
CCCCCCCCCCCCCCCC(=O)N(C)[C@H](CO)C(=O)N[C@H](C)C(=O)NCC(=O)N(C)[C@@H]1C(=O)N[C@@H](C)C(=O)N[C@H](C(=O)NC(CO)CO)Cc2ccc(O)c(c2)-c2cc1ccc2O [Compound 67],–,–,–,–,–,–,–,–,> 64,> 64,16 to 64,16 to 64,16 to 64,> 64,> 10000,> 10000
CCCCCCCCCCCCCCCC(=O)N(C)[C@H](CO)C(=O)N[C@H](C)C(=O)NCC(=O)N(C)[C@@H]1C(=O)N[C@@H](C)C(=O)N[C@H](C(=O)NC[C@@H](C)O)Cc2ccc(O)c(c2)-c2cc1ccc2O [Compound 65],–,–,–,–,–,–,–,–,> 64,> 64,< 8,16 to 64,16 to 64,> 64,< 1000,1000 to 10000
CCCCCCCCCCCCCCCC(=O)N(C)[C@H](CO)C(=O)N[C@H](C)C(=O)NCC(=O)N(C)[C@@H]1C(=O)N[C@@H](C)C(=O)N[C@H](C(=O)O)CCCc2ccc(O)c(c2)-c2cc1ccc2O [Compound 83],a (MIC >64 μg/ml),b (MIC 16-64 μg/ml),c (MIC ≤8 μg/ml),c (MIC ≤8 μg/ml),c (MIC ≤8 μg/ml),a (MIC >64 μg/ml),1000 to 10000,< 1000,–,–,–,–,–,–,–,–
CCCCCCCCCCCCCCCC(=O)N(C)[C@H](CO)C(=O)N[C@H](C)C(=O)NCC(=O)N(C)[C@@H]1C(=O)N[C@@H](C)C(=O)N[C@H](C(=O)N[C@H](CO)C(C)O)Cc2ccc(O)c(c2)-c2cc1ccc2O (some centres unmarked) [Compound 68],–,–,–,–,–,–,–,–,> 64,> 64,16 to 64,16 to 64,16 to 64,> 64,1000 to 10000,> 10000
